Several values for one entry are separate records, joined by “and”; a condition that tells them apart may be missing. Equal values may be shown once. Read-outs that look alike come from different tables or passages of the source.
What was measured:
HIV-1 replication [1] = conditions: published compounds, in words; cited from earlier work
cells [2] = conditions: published compounds, in words; cited from earlier work
HIV-1 replication [3] = experiment: Cell culture viral growth assay (HIV-1 replication); type: cell-based
cells [4] = conditions: published compound, in words; cited from earlier work
[5] = target: T1, RNase H activity of HIV reverse transcriptase (Human immunodeficiency virus type 1 group M subtype B, UniProt P04585); conditions: read-out: IC50 RNase H inhibition; literature value (Borkow et al. 1997); cited from earlier work
[6] = target: T1, RNase H activity of HIV reverse transcriptase; experiment: Fluorescence (FRET)-based RNase H activity assay of HIV reverse transcriptase; type: biochemical, HIV-1; set-up: final concentration of 2.5 nM of the p51/p66 RT heterodimer in the assay; made in house; conditions: for IC50: read-out: IC50 (μM) against HIV RNase H in vitro; for remaining activity at 10 µM / Residual activity (%) RNase H: 10 μM inhibitor concentration, activity with analog / without analog x 100; for remaining activity at 10 µM: read-out: Residual activity (%) RNase H
In short: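 p51/p66 HIV-1 RT (usually 2.5 nM) cleaving a 3′-fluorescein RNA/5′-DABCYL DNA hybrid (2.5 μM stock) in 50 mM Tris pH 8.0, 60 mM KCl, 2.5 mM MgCl2, 37 °C; fluorescence rise (ex 490/em 528 nm) read over 3–60 min. Mappicine analogs at 10 μM; % residual activity or % inhibition versus compound-free enzyme.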

[7] = target: T2, RNA-dependent DNA polymerase activity of HIV reverse transcriptase (Human immunodeficiency virus type 1 group M subtype B, UniProt P04585); experiment: RNA-dependent DNA polymerase activity assay of HIV reverse transcriptase; type: biochemical, HIV-1; conditions: 10 μM inhibitor concentration, activity with analog / without analog x 100; for remaining activity at 10 µM: read-out: Residual activity (%) Polymerase
T2 construct: made in house
In short: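 HIV reverse transcriptase RNA-dependent DNA polymerase activity measured with and without mappicine analogs at 10 μM final. Values are % residual activity: activity with compound divided by activity without, ×100.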

[8] = Human immunodeficiency virus 1, read-out: EC50 (μM) against HIV-1 replication

SMILES | Residual activity (%) Polymerase [7] [%] | Residual activity (%) RNase H [6] [%] | also measured
O=C(O)C(=O)CC(=O)c1ccc(NC(=O)c2ccccc2)s1 [BTOBA, 4-[5-(benzoylamino)thien-2-yl]-2,4-dioxobutanoic acid] | – | – | antiviral activity against HIV-1 replication in cultured cells (HIV-1 replication [1]): cannot inhibit HIV-1 replication in cultured cells; ability to penetrate cells (cells [2]): Neither CPHM nor BTOBA are able to penetrate cells
CC(C)(C)c1ccc(C(=O)NN=Cc2c(O)ccc3ccccc23)cc1 [BBNH, N-4-(t-butylbenzoyl)-2-hydroxy-1-napthaldehyde hydrazone] | – | – | EC50 (HIV-1 replication [3]; Human immunodeficiency virus 1, cell culture viral growth assay, read-out: EC50 (μM) against HIV-1 replication): 1.5 µM; antiviral activity against HIV-1 replication in cultured cells (HIV-1 replication [1]): demonstrated antiviral activity against HIV-1 replication in cultured cells; toxicity to cells (cells [4]): highly toxic to cells at concentrations only slightly above those that inhibit virus replication; IC50 [5]: ~2 µM; IC50 [6]: 1.8 µM
CCC(O)c1cc2n(c(=O)c1C)Cc1c-2nc2ccc(NC(=O)OC(C)(C)C)cc2c1[Si](C)(C)C (stereo not shown) [AG 2M, 2-tert-Butyloxycarbonylamino-7-(1-hydroxypropyl)-8-methyl-12-trimethylsilanyl-11H-indolizino[1,2-b]quinolin-9-one] | – | – | remaining activity at 10 µM [7]: 80%; EC50 (HIV-1 replication [3]; [8]): ~5 µM; remaining activity at 10 µM [6]: 47%; IC50 [6]: < 10 µM and 8 µM
O=C(O)C(=NNc1ccc(Cl)cc1)C(=O)O [CPHM, 2-[(4-chlorophenyl)-hydrazono]-malonic acid] | – | – | antiviral activity against HIV-1 replication in cultured cells (HIV-1 replication [1]): cannot inhibit HIV-1 replication in cultured cells; ability to penetrate cells (cells [2]): Neither CPHM nor BTOBA are able to penetrate cells
CCC(O)c1cc2n(c(=O)c1C)Cc1c-2nc2ccc(F)cc2c1[Si](C)(C)C(C)(C)C (racemic) [4Bα] | 98 | 108 | –
Cc1c(C(O)C(C)(C)C)cc2n(c1=O)Cc1c-2nc2ccccc2c1[Si](C)(C)C (racemic) [5Aβ] | 103 | 77 | –
COc1ccc2nc3c(c(-c4ccccc4)c2c1)Cn1c-3cc(C(=O)CCC2CCCCC2)c(C)c1=O [3Dδκ] | 81 | 97 | –
Cc1ccc2nc3c(c([Si](C)(C)C)c2c1)Cn1c-3cc(C(=O)CCC2CCCCC2)c(C)c1=O [5Cδκ] | 59 | 99 | –
CCC(=O)c1cc2n(c(=O)c1C)Cc1c-2nc2ccc(C)cc2c1-c1ccccc1 [3Cακ] | 71 | 99 | –
Cc1c(C(=O)CCC2CCCCC2)cc2n(c1=O)Cc1c-2nc2ccc(F)cc2c1[Si](C)(C)C(C)(C)C [4Bδκ] | 56 | 96 | –
CCC(=O)c1cc2n(c(=O)c1C)Cc1c-2nc2ccc(OC)cc2c1[Si](C)(C)C(C)(C)C [4Dακ] | 80 | 77 | –
Cc1c(C(=O)C(C)(C)C)cc2n(c1=O)Cc1c-2nc2ccc(F)cc2c1[Si](C)(C)C [5Bβκ] | 63 | 100 | –
CCCCCCc1c2c(nc3ccc(C)cc13)-c1cc(C(O)Cc3ccccc3)c(C)c(=O)n1C2 (racemic) [8Cε] | 76 | 76 | –
CCc1c2c(nc3ccc(N)cc13)-c1cc(C(O)CC)c(C)c(=O)n1C2 (stereo not shown) [AG 6M, 2-Amino-12-ethyl-7-(1-hydroxypropyl)-8-methyl-11H-indolizino[1,2-b]quinolin-9-one] | – | – | remaining activity at 10 µM [7]: 76%; EC50 (HIV-1 replication [3]; [8]): ~5 µM; remaining activity at 10 µM [6]: 57%; IC50 [6]: < 10 µM and 10 µM
CCCCCCc1c2c(nc3ccccc13)-c1cc(C(O)Cc3ccccc3)c(C)c(=O)n1C2 (racemic) [8Aε] | 58 | 71 | –
CCCCCCc1c2c(nc3ccc(F)cc13)-c1cc(C(O)Cc3ccccc3)c(C)c(=O)n1C2 (racemic) [8Bε] | 92 | 84 | –
Cc1ccc2nc3c(c([Si](C)(C)C)c2c1)Cn1c-3cc(C(O)Cc2ccccc2)c(C)c1=O (racemic) [5Cε] | 87 | 93 | –
Cc1ccc2nc3c(c([Si](C)(C)C(C)(C)C)c2c1)Cn1c-3cc(C(O)CCC2CCCCC2)c(C)c1=O (racemic) [4Cδ] | 61 | 109 | –

— patent US20040058948A1, “Mappicine analogs, methods of inhibiting retroviral reverse transcriptase and methods of treating retroviruses” (priority 2002, published 2004)
